According to patent US20210403460A1, “INHIBITORS OF MUTANT ISOCITRATE DEHYDROGENASES AND COMPOSITIONS AND METHODS THEREOF” (IsoCure Biosciences Inc., priority 2016, published 2021):

Key:
Format in all cases: biochemical
IDH1 (R132C) = IDH1 (R132C) (Homo sapiens, UniProt O75874, R132C); test: IDH1 R132C enzyme assay, NADPH depletion by diaphorase/resazurin coupled detection; details: 60 min preincubation with enzyme/NADPH, 45 min reaction, room temperature
Procedure: (§1) Compounds were tested against 3 enzymes WT IDH1, IDH1 R132C, IDH1 R132H
(§2) Assay Format: The production or depletion of NADPH by IDH enzymes was measured by diaphorase/resazurin coupled detection.
(§3) Reaction Procedure Mutant:
(§4) 8. Deliver enzyme/NADPH in the reaction buffer into wells of reaction plate except No Enzyme control wells. Add buffer+NADPH into No Enzyme wells. 9. Deliver compound in 100% DMSO into the enzyme mixture. Spin down and preincubate for 60 min at room temperature. 10. Deliver Substrate mixture to initiate the reaction. Spin down plate and gently shake 45 minutes at room temperature.
(§5) Detection Step (the Same as Wt):
(§6) 11. Make a 3× mix of Detection mixture in the reaction buffer, and add detection mixture into the reaction. Spin down. 12. Incubate at room temperature for 10 minutes.
(§7) 13. Measure in Envision. (Ex/Em=535/590 nm)
(§8) 14. […] (the average value of the No Enzyme wells). Average the DMSO control wells and set value as 100%. Take ratio of measured data/average DMSO control value times 100% to arrive at % activity.

IDH1 (R132H) = IDH1 (R132H) (Homo sapiens, UniProt O75874, R132H); test: IDH1 R132H enzyme assay, NADPH depletion by diaphorase/resazurin coupled detection; details: 60 min preincubation with enzyme/NADPH, 45 min reaction, room temperature
IDH1 (R132H), sequence (O75874 whole entry R132H): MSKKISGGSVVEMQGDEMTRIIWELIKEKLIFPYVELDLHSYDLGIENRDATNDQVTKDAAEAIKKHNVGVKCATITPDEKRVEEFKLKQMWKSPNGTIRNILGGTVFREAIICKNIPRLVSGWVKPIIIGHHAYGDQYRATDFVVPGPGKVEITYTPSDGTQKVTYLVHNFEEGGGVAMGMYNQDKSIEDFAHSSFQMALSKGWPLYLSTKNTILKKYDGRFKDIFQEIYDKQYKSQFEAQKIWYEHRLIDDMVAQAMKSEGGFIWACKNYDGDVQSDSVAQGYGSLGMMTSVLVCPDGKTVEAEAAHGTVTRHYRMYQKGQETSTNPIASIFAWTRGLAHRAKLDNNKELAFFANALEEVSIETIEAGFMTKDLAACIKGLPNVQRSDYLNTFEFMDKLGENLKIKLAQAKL
Procedure: as §1, §2, §3, §4, §5, §6, §7, §8

WT IDH1 = WT IDH1 (Homo sapiens, UniProt O75874); test: Wild-type IDH1 enzyme assay, NADPH production by diaphorase/resazurin coupled detection; details: 60 min preincubation with enzyme/NADP, 45 min reaction, room temperature
WT IDH1, sequence (O75874 whole entry): as the sequence (O75874 whole entry R132H) above, with H132R counted along it
Procedure: as §1, §2
Reaction Procedure Wild-Type:
as §4, with “1.” for “8.”, “enzyme/NADP” for “enzyme/NADPH”, “buffer+NADP” for “buffer+NADPH”, “2.” for “9.”, “3.” for “10.”
4. Make a 3× mix of Detection mixture in the reaction buffer, and add detection mixture into the reaction. Spin down. 5. Incubate at room temperature for 10 minutes.
6. Measure in Envision. (Ex/Em=535/590 nm)
7. Subtract background (the average value of the No Enzyme control wells) from raw data. Average the DMSO control wells and set value as 100%. Take ratio of measured data/average DMSO control value times 100% to arrive at % activity.

IDH1 (R132C), sequence (O75874 whole entry R132C): as the sequence (O75874 whole entry R132H) above, with H132C counted along it

Structure (SMILES)	IC50 (IDH1 (R132C)) [nM]	IC50 (IDH1 (R132H)) [nM]	IC50 (WT IDH1) [nM]
C=CC(=O)N1CCN(Cc2ccc([C@H](C)Nc3nccc(N4C(=O)OC[C@@H]4C(C)C)n3)cc2)CC1 [IS01, (S)-3-(2-(((S)-1-(4-((4-acryloylpiperazin-1-yl)methyl)phenyl)ethyl)amino)pyrimidin-4-yl)-4-isopropyloxazolidin-2-one]	1.61	1.32	9460
C=CC(=O)Nc1ccc(Nc2ccc([C@H](C)Nc3nccc(N4C(=O)OC[C@@H]4C(C)C)n3)cc2)nc1 [IS03, N-(6-((4-((S)-1-((4-((S)-4-isopropyl-2-oxooxazolidin-3-yl)pyrimidin-2-yl)amino)ethyl)phenyl)amino)pyridin-3-yl)acrylamide]	3.35	3.61	8520
C=CC(=O)Nc1ccc(Nc2ccc([C@H](C)Nc3nccc(N4C(=O)OC[C@@H]4C(C)C)n3)cc2)cc1 [IS04, N-(4-((4-((S)-1-((4-((S)-4-isopropyl-2-oxooxazolidin-3-yl)pyrimidin-2-yl)amino)ethyl)phenyl)amino)phenyl)acrylamide]	7.55	10.5	> 10000
C=CC(=O)Nc1cccc(Nc2ccc([C@H](C)Nc3nccc(N4C(=O)OC[C@@H]4C(C)C)n3)cc2)c1 [IS05, N-(3-((4-((S)-1-((4-((S)-4-isopropyl-2-oxooxazolidin-3-yl)pyrimidin-2-yl)amino)ethyl)phenyl)amino)phenyl)acrylamide]	4.67	–	> 1480
C=CC(=O)N1CCC(Oc2ccc(C(C)Nc3nccc(N4C(=O)OC[C@@H]4C(C)C)n3)cn2)CC1 (stereo partly drawn) [IS07, (4S)-3-(2-((1-(6-((1-acryloylpiperidin-4-yl)oxy)pyridin-3-yl)ethyl)amino)pyrimidin-4-yl)-4-isopropyloxazolidin-2-one]	–	340	–
C=CC(=O)Nc1ccc(N(C)c2cnc(C(C)Nc3nccc(N4C(=O)OC[C@@H]4C(C)C)n3)nc2)cc1 (stereo partly drawn) [IS012, N-(4-((2-(1-((4-((S)-4-isopropyl-2-oxooxazolidin-3-yl)pyrimidin-2-yl)amino)ethyl)pyrimidin-5-yl)(methyl)amino)phenyl)acrylamide]	198	161	–
C=CC(=O)Nc1cccc(-c2cnc(C(C)Nc3nccc(N4C(=O)OC[C@@H]4C(C)C)n3)nc2)c1 (stereo partly drawn) [IS013, N-(3-(2-(1-((4-((S)-4-isopropyl-2-oxooxazolidin-3-yl)pyrimidin-2-yl)amino)ethyl)pyrimidin-5-yl)phenyl)acrylamide]	285	107	–
C=CC(=O)N1CCN(Cc2ccc([C@H](C)Nc3nc(N4C(=O)OC[C@@H]4C(C)C)c4sccc4n3)cc2)CC1 [IS014, (S)-3-(2-(((S)-1-(4-((4-acryloylpiperazin-1-yl)methyl)phenyl)ethyl)amino)thieno [3,2-d]pyrimidin-4-yl)-4-isopropyloxazolidin-2-one]	2.61	–	–
